Laboratory results taken from patent US20250154169A1, “COMPOUNDS AND METHODS FOR MODULATING SPLICING” (REMIX THERAPEUTICS INC., priority 2021, published 2025).
Like-named read-outs stand apart in the source and are kept apart here.

Experiments:
Assay type in all cases: cell-based, human
Target C mRNA = assay: Splicing RT-qPCR gene panel, Target C canonical junction (CJ) mRNA; settings: Homo sapiens, Tables 4A/4B, read-out: Target C (IC50, decrease in CJ mRNA, gene panel)
How it was run: (§1)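 A673 or K562 cells treated 24 h at 37° C. with an 11-point 3-fold dilution series (top 10 uM, ≤0.25% DMSO). Lysates analysed by one-step RT-qPCR for canonical exon-exon junction transcripts, normalized to GAPDH, GUSB or PPIA and DMSO control (2^(−ΔΔCt)), then converted to percentage response.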

SMN2 mRNA = assay: Splicing RT-qPCR gene panel, SMN2 canonical junction (CJ) mRNA; settings: Homo sapiens, Tables 4A/4B, read-out: SMN2 (IC50, decrease in CJ mRNA, gene panel)
How it was run: as §1

HTT mRNA [1] = assay: Splicing RT-qPCR assay, HTT canonical (CJ) and alternative (AJ) junction mRNA; settings: Homo sapiens
How it was run: (§2)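 One-step RT-qPCR on cell lysates, CJ and AJ isoforms quantified; housekeeping normalization GAPDH/GUSB (K562) or PPIA (A673). Cells: A673 in DMEM/10% FBS or K562 in IMDM/10% FBS. Compounds 11-pt 3-fold, top 10 uM, 24 h, 37 °C, 5% CO2.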

HTT mRNA [2] = assay: Splicing RT-qPCR gene panel, HTT canonical junction (CJ) mRNA; settings: Homo sapiens, Tables 4A/4B, read-out: HTT (IC50, decrease in CJ mRNA, gene panel)
How it was run: as §1

MYB mRNA = assay: Splicing RT-qPCR assay, MYB canonical (CJ) and alternative (AJ) junction mRNA; settings: Homo sapiens
How it was run: as §2

[3] = 24 h, A673 or K562 cells, 24 hours compound treatment, read-out: HTT CJ (IC50, decrease in canonical junction mRNA)
[4] = A673 or K562 cells, 24 hours compound treatment, read-out: HTT AJ (AC50, increase in alternative junction mRNA)
[5] = 24 h, A673 or K562 cells, 24 hours compound treatment, RT-qPCR, read-out: MYB AJ (AC50, increase in alternative junction mRNA)
[6] = 24 h, A673 or K562 cells, 24 hours compound treatment, RT-qPCR, read-out: MYB CJ (IC50, decrease in canonical junction mRNA)
[7] = Tables 4A/4B, canonical junction qPCR panel, read-out: MYB (IC50, decrease in CJ mRNA, gene panel)
[8] = Table 3B, alternative junction mRNA, read-out: HTT AJ (AC50, increase in AJ mRNA)
[9] = Table 3B, canonical junction mRNA, read-out: HTT CJ (IC50, decrease in CJ mRNA)
[10] = Table 3B, canonical junction mRNA, RT-qPCR, read-out: MYB CJ (IC50, decrease in CJ mRNA)
[11] = Table 3B, alternative junction mRNA, RT-qPCR, read-out: MYB AJ (AC50, increase in AJ mRNA)

SMILES | IC50 (Target C mRNA) | IC50 (SMN2 mRNA) | IC50 (HTT mRNA [1]; [3]) | AC50 (HTT mRNA [1]; [4]) | IC50 (HTT mRNA [2]) | AC50 (MYB mRNA; [5]) | IC50 (MYB mRNA; [6]) | IC50 (MYB mRNA; [7]) | AC50 (HTT mRNA [1]; [8]) | IC50 (HTT mRNA [1]; [9]) | IC50 (MYB mRNA; [10]) | AC50 (MYB mRNA; [11])
CNc1cc(N2CCNCC2)c2cn(C)nc2c1C(=O)Nc1cc(F)c2nc(C)cn2c1 [Compound 362, N-{8-fluoro-2-methylimidazo[1,2-a]pyridin-6-yl}-2-methyl-6-(methylamino)-4-(piperazin-1-yl) indazole-7-carboxamide] | > 10 µM | 0.1 to 1 µM | > 10 µM | > 10 µM | > 10 µM | 1 to 10 µM | 1 to 10 µM | 1 to 10 µM | – | – | – | –
Cc1cn2cc(NC(=O)c3ccc(N4CC[C@@H](NC5CC5)C4)n4cc(C)nc34)cc(F)c2n1 [Compound 965] | 0.1 to 1 µM | < 0.1 µM | – | – | < 0.1 µM | – | – | < 0.1 µM | < 0.1 µM | < 0.1 µM | < 0.1 µM | < 0.1 µM
CCn1cc2c(N3CCC(N(C)C)C3)ccc(C(=O)Nc3cc(F)c4nc(C)cn4c3)c2n1 (stereo not shown) [Compound 375, 4-[3-(dimethylamino)pyrrolidin-1-yl]-2-ethyl-N-{8-fluoro-2-methylimidazo[1,2-a]pyridin-6-yl}indazole-7-carboxamide] | 0.1 to 1 µM | < 0.1 µM | 0.1 to 1 µM | 0.1 to 1 µM | 0.1 to 1 µM | 0.1 to 1 µM | 0.1 to 1 µM | 0.1 to 1 µM | – | – | – | –
Cc1cn2cc(NC(=O)c3ccc(N4CCNCC4)c4cc(CO)nn34)cc(F)c2n1 [Compound 955] | > 10 µM | < 0.1 µM | – | – | 0.1 to 1 µM | – | – | < 0.1 µM | 1 to 10 µM | 0.1 to 1 µM | < 0.1 µM | < 0.1 µM
C=C(C)n1ncc2c(N3CCNCC3)ccc(C(=O)Nc3cc(F)c4nc(C)cn4c3)c21 [Compound 416, N-(8-fluoro-2-methylimidazo[1,2-a]pyridin-6-yl)-4-(piperazin-1-yl)-1-(prop-1-en-2-yl)-1H-indazole-7-carboxamide] | > 10 µM | 1 to 10 µM | > 10 µM | > 10 µM | > 10 µM | > 10 µM | > 10 µM | > 10 µM | – | – | – | –
Cc1cn2cc(NC(=O)c3ccc(N4CCC5(CCCN5)CC4)c4cn(C)nc34)cc(F)c2n1 [Compound 349, 4-{1,8-diazaspiro[4.5]decan-8-yl}-N-{8-fluoro-2-methylimidazo[1,2-a]pyridin-6-yl}-2-methylindazole-7-carboxamide] | 0.1 to 1 µM | < 0.1 µM | 0.1 to 1 µM | 0.1 to 1 µM | 0.1 to 1 µM | < 0.1 µM | < 0.1 µM | < 0.1 µM | – | – | – | –
Cc1cn2c(n1)CCC(NC(=O)c1ccc(N3CCNCC3)c3cn(C)nc13)C2 (stereo not shown) [Compound 457, 2-methyl-N-{2-methyl-5H,6H,7H,8H-imidazo[1,2-a]pyridin-6-yl}-4-(piperazin-1-yl) indazole-7-carboxamide] | > 10 µM | > 10 µM | > 10 µM | > 10 µM | > 10 µM | > 10 µM | > 10 µM | > 10 µM | – | – | – | –
Cc1cn2cc(NC(=O)c3ccc(N4CCNCC4)c4cc(C)oc34)cc(Cl)c2n1 [Compound 266] | > 10 µM | < 0.1 µM | 1 to 10 µM | 1 to 10 µM | 1 to 10 µM | < 0.1 µM | 0.1 to 1 µM | 0.1 to 1 µM | – | – | – | –
